Patent publication US20100234386A1, “QUINOXALINE DERIVATIVES AS PI3 KINASE INHIBITORS” (priority 2007, published 2010)

Biological target: T1, PI3Kα (Homo sapiens, UniProt P42336)
T1 construct: His
Test: PI3K Alpha Leadseeker SPA Assay
Type: biochemical
Details: in at least one experimental run; read-out: IC50 value against PI3Kα
Source text: PI3K Alpha Leadseeker SPA Assay
SPA imaging beads are microspheres containing scintillant which emit light in the red region of the visible spectrum. As a result, these beads are ideally suited to use with a CCD imager such as the Viewlux. The Leadseeker beads used in this system are polystyrene beads that have been coupled with polyethyleneimine. When added to the assay mixture, the beads absorb both the substrate (PIP2) and product (PIP3). Adsorbed P^33-PIP3 will cause an increase in signal, measured as ADUs (analog to digital units). This protocol details the use of the PEI-PS Leadseeker beads for assays using His-p110/p85 PI3K alpha.
The compounds are serially diluted (3-fold in 100% DMSO) across the plate from column 1 to column 12 and column 13 to column 24 and leave column 6 and 18 containing only DMSO to yield 11 concentrations for each test compound.
The assay buffer contains MOPS (pH 6.5), CHAPS, and DTT. PI3K alpha and PIP2 (L-alpha-D-myo-Phosphatidylinositol 4,5-bisphosphate[PI(4,5)P2]3-O-phospho linked, D(+)-sn-1,2-di-O-octanoylglyceryl, CellSignals # 901) are mixed and incubated in the plate with compound for 30 min prior to starting the reaction with the addition of P^33-ATP and MgCl2 (reagents added using Zoom). […] PEI-PS Leadseeker beads in PBS/EDTA/CHAPS are added (by Multidrop) to quench the reaction, and the plates are allowed to incubate for at least one hour (typically overnight) before centrifugation. The signal is determined using a Viewlux detector and is then imported into curve fitting software (Activity Base) for construction of concentration response curves. The percent inhibition of activity is calculated relative to high controls (C1, 0.1 μl DMSO in column 6, rows A-P)) and low controls (C2, 5 μl of 40 uM PIP2 in buffer in column 18, rows A-P) using, 100*(1−(U1−C2)/(C1−C2)). The concentration of test compound yielding 50% inhibition is determined using the equation, y=((Vmax*x)/(K+x))+Y2, where “K” was equal to the […]. The IC50 values are converted to pIC50 values, i.e., −log IC50 in Molar concentration.

T1 sequence (P42336 whole entry, species assumed): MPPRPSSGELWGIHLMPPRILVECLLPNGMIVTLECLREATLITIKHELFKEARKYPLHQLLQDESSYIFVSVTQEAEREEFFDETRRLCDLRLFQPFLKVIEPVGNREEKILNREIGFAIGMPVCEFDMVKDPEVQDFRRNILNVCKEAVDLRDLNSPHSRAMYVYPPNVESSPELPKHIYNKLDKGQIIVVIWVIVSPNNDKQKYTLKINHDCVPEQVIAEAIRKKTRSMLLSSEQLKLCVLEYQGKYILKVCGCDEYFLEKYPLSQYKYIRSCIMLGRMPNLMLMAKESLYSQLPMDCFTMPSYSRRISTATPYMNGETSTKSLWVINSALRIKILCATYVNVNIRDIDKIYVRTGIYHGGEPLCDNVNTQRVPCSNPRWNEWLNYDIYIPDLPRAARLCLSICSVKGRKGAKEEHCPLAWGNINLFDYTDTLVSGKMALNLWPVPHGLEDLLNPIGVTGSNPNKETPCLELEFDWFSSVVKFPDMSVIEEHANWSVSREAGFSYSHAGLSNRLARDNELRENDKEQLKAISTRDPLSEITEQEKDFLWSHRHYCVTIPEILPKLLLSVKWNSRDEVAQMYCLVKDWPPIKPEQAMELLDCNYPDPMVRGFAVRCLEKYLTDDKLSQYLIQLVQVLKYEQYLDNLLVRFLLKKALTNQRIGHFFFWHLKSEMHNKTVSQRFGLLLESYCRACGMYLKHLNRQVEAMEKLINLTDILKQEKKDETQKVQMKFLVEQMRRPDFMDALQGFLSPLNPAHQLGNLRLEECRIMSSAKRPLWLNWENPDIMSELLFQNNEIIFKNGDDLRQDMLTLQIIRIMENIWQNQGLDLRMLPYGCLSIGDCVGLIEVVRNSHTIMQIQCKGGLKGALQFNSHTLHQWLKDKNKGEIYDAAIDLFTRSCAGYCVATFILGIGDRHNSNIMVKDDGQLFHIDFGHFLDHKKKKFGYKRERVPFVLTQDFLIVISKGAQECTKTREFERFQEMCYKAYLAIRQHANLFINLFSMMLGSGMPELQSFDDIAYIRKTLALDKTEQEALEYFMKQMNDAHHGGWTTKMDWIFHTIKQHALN
T1 sequence (P27986 whole entry partner, species assumed): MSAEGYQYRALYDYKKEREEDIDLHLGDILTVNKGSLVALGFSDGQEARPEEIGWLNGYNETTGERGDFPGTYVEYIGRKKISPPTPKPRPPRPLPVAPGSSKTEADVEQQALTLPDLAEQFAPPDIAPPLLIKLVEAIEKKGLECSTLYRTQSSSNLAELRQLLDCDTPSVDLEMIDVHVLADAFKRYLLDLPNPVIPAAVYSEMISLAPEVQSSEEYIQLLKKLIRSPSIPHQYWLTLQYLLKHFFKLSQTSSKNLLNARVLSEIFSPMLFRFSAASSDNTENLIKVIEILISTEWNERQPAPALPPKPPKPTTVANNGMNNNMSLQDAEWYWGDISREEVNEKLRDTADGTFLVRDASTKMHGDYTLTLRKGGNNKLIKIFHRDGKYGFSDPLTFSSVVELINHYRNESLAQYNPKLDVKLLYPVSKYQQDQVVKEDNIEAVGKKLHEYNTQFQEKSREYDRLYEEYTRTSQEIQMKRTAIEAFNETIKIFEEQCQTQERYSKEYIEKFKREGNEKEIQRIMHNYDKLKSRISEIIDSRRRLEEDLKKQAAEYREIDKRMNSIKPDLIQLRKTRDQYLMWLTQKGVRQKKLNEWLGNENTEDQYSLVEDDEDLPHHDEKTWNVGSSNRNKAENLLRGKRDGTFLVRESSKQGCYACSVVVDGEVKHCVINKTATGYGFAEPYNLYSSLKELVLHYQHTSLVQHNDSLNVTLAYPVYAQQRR

SMILES | IC50 [nM]
c1cc2ncc(N3CCOCC3)nc2cc1-c1cnc2[nH]ncc2c1 [Example 1, 2-(4-morpholinyl)-7-(1H-pyrazolo[3,4-b]pyridin-5-yl)quinoxaline] | 5
COc1ccc(-c2ccc3ncc(N4CCOCC4)nc3c2)cn1 [Example 2] | 100
c1cc2cc(-c3ccc4ncc(N5CCOCC5)nc4c3)cnc2[nH]1 [Example 4] | 50
CCNc1cnc2ccc(-c3cnc(N)c(S(=O)(=O)N(C)C)c3)cc2n1 [Example 19] | 8
NS(=O)(=O)c1cncc(-c2ccc3ncc(-c4ccncc4)nc3c2)c1 [Example 70] | 200
